Laboratory results taken from US11084814B2, “Pyrido[3, 4-d]pyrimidine derivative and pharmaceutically acceptable salt thereof” (Teijin Pharma Limited, priority 2016, dated 2021).

How the values were obtained:
CDK4/cyclin D3 = biological target: T1, CDK4/cyclin D3 (Homo sapiens, UniProt P11802); test: Human CDK4/cyclin D3 inhibitory activity (QS S Assist CDK4/Cyclin D3_FP Kit, IMAP fluorescent polarization); type: biochemical; conditions: read-out: CDK4 Activity symbol
T1 construct: purchased Carna Biosciences, Inc. QS S Assist CDK4/Cyclin D3_FP Kit
T1 sequence (P11802 whole entry): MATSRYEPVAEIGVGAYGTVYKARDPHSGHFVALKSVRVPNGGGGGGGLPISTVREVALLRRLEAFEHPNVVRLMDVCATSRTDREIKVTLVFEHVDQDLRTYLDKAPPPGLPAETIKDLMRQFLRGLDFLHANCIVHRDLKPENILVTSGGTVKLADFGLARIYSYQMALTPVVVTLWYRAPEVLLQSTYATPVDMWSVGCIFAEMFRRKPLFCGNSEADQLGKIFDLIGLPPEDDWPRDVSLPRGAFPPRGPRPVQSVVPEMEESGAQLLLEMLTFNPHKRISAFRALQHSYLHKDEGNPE
T1 sequence (P30281 whole entry partner): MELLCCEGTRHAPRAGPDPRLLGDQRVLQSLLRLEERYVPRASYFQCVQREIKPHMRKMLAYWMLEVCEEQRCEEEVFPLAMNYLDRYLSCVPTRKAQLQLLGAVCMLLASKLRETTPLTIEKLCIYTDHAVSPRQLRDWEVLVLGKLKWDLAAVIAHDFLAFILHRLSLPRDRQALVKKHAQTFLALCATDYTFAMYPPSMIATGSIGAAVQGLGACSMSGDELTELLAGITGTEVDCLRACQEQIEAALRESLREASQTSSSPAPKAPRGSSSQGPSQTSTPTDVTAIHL
How it was run: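 Kinase reactions used kit CDK4/cyclin D3 at 12.5–25 ng/well with the kit ATP/substrate/metal mix in 20 mM HEPES (pH 7.4), 0.01% Tween20 and 2 mM DTT, run 45 min at room temperature. Phosphorylation was detected by IMAP fluorescence polarization (ex 485/em 535 nm) after 30 min binding in the dark. IC50 was fitted from percent inhibition against DMSO controls with and without enzyme.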

CDK2/cyclin A2 = biological target: T2, CDK2/cyclin A2 (Homo sapiens, UniProt P24941); test: Human CDK2/cyclin A2 inhibitory activity (QS S Assist CDK2/Cyclin A2_FP Kit, IMAP fluorescent polarization); type: biochemical; conditions: read-out: CDK2 Activity symbol
T2 construct: purchased Carna Biosciences, Inc. QS S Assist CDK2/Cyclin A2_FP Kit
How it was run: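 Kit CDK2/cyclin A2 (2.5 ng/well) was reacted with kit ATP/substrate/metal in 20 mM HEPES pH 7.4, 0.01% Tween 20 and 2 mM DTT for 60 min at room temperature. IMAP binding reagent was added for 30 min, then fluorescence polarization was read at 485/535 nm. IC50 came from dose-response fitting of percent inhibition.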

| SMILES | IC50 (CDK4/cyclin D3) | IC50 (CDK2/cyclin A2) |
| --- | --- | --- |
| C[C@@H](O)c1cc2cnc(Nc3ccc4c(n3)CCN(C(=O)CN3CC(F)C3)C4)nc2c(N2C3CCC2CC3)n1 [Compound 235] | < 10 nM | ≥ 100 nM |
| CC(O)c1cc2cnc(Nc3ccc4c(n3)CCN(C(=O)CN3CC5(COC5)C3)C4)nc2c(N2C3CCC2CC3)n1 (centres unmarked) [Compound 236] | < 10 nM | ≥ 100 nM |
| C[C@@H](O)c1cc2cnc(Nc3ccc4c(n3)CCN(C(=O)[C@@H]3CCCCN3C)C4)nc2c(N2C3CCC2CC3)n1 [Compound 237] | < 10 nM | ≥ 100 nM |
| CC(O)c1cc2cnc(Nc3ccc4c(n3)CCN(C(=O)C3CCCCN3C)C4)nc2c(N2C3CCC2CC3)n1 (centres unmarked) [Compound 238] | < 10 nM | ≥ 100 nM |
| C[C@@H](O)c1cc2cnc(Nc3ccc4c(n3)CCN(C(=O)C3CN(C)C3)C4)nc2c(N2C3CCC2CC3)n1 [Compound 239] | < 10 nM | ≥ 100 nM |
| C[C@@H](O)c1cc2cnc(Nc3ccc4c(n3)CCN(C3CN(C)C3)C4)nc2c(N2C3CCC2CC3)n1 [Compound 240] | < 10 nM | ≥ 100 nM |
| C[C@@H](O)c1cc2cnc(Nc3ccc(O[C@H]4CCCNC4)cn3)nc2c(N2CCCCC2)n1 [Compound 241] | < 10 nM | ≥ 100 nM |
| CC(O)c1cc2cnc(Nc3ccc(OC4CCCNC4)cn3)nc2c(N2C3CCC2CC3)n1 (centres unmarked) [Compound 242] | < 10 nM | ≥ 100 nM |
| C[C@@H](O)c1cc2cnc(Nc3ccc(OC4CCNCC4)cn3)nc2c(N2CCC[C@H](F)C2)n1 [Compound 243] | < 10 nM | ≥ 100 nM |
| O=C1CCNCCN1c1ccc(Nc2ncc3cc(CO)nc(N4CCCCC4)c3n2)nc1 [Compound 244] | < 10 nM | ≥ 100 nM |
| CC[C@@H](O)c1cc2cnc(Nc3ccc(N4CCNCC4=O)cn3)nc2c(N2CCC[C@H]2C)n1 [Compound 245] | < 10 nM | ≥ 100 nM |
| CC[C@H](O)c1cc2cnc(Nc3ccc(N4CCNCC4=O)cn3)nc2c(N2CCC[C@H]2C)n1 [Compound 246] | < 10 nM | ≥ 100 nM |
| CC[C@@H](O)c1cc2cnc(Nc3ccc(CN4CCN(CCO)CC4)cn3)nc2c(N2CCC[C@H]2C)n1 [Compound 247] | < 10 nM | ≥ 100 nM |
| CC[C@H](O)c1cc2cnc(Nc3ccc(CN4CCN(CCO)CC4)cn3)nc2c(N2CCC[C@H]2C)n1 [Compound 248] | < 10 nM | ≥ 100 nM |
| C[C@@H](O)c1cc2cnc(Nc3ccc(CN4CCN(CCO)C(=O)C4)cn3)nc2c(N2CCCCC2)n1 [Compound 249] | 10 to 100 nM | ≥ 100 nM |
| C[C@@H](O)c1cc2cnc(Nc3ccc(O[C@H]4CCCNC4)cn3)nc2c(N2CC[C@@H](F)C2)n1 [Compound 250] | < 10 nM | ≥ 100 nM |
| C[C@@H](O)c1cc2cnc(Nc3ccc(O[C@H]4CCCNC4)cn3)nc2c(N2CCC[C@H](F)C2)n1 [Compound 251] | < 10 nM | ≥ 100 nM |
| C[C@@H](O)c1cc2cnc(Nc3ccc(O[C@H]4CCCN(CCO)C4)cn3)nc2c(N2CCCCC2)n1 [Compound 252] | < 10 nM | ≥ 100 nM |
| C[C@@H](O)c1cc2cnc(Nc3ccc(O[C@H]4CCCN(CCO)C4)cn3)nc2c(N2C3CCC2CC3)n1 [Compound 253] | < 10 nM | ≥ 100 nM |
| C[C@@H](O)c1cc2cnc(Nc3ccc(O[C@H]4CCCN(CCO)C4)cn3)nc2c(N2CC[C@@H](F)C2)n1 [Compound 254] | < 10 nM | ≥ 100 nM |
| C[C@@H](O)c1cc2cnc(Nc3ccc(O[C@H]4CCCN(CCO)C4)cn3)nc2c(N2CCC[C@H](F)C2)n1 [Compound 255] | < 10 nM | ≥ 100 nM |
| C[C@@H](O)c1cc2cnc(Nc3ccc(N4CCNCC4=O)cn3)nc2c(N2C3CCC2CC3)n1 [Compound 256] | < 10 nM | ≥ 100 nM |

| SMILES | IC50 (CDK4/cyclin D3) | IC50 (CDK2/cyclin A2) |
| --- | --- | --- |
| C[C@H]1CCN(c2nc([C@@H](C)O)cc3cnc(Nc4ccc(N5CCNCC5=O)cn4)nc23)C1 [Compound 257] | < 10 nM | ≥ 100 nM |
| C[C@H]1CCN(c2nc([C@@H](C)O)cc3cnc(Nc4ccc(N5CCCNCC5=O)cn4)nc23)C1 [Compound 258] | < 10 nM | ≥ 100 nM |
| C[C@@H](O)c1cc2cnc(Nc3ccc(N4CCN(CCS(C)(=O)=O)CCC4=O)cn3)nc2c(N2CCCCC2)n1 [Compound 259] | < 10 nM | ≥ 100 nM |
| Cc1nc(Nc2ncc3cc([C@@H](C)O)nc(N4CCCCC4)c3n2)ccc1N1CCNCC1=O [Compound 260] | < 10 nM | ≥ 100 nM |
| Cc1nc(Nc2ncc3cc([C@@H](C)O)nc(N4CC[C@H](C)C4)c3n2)ccc1N1CCNCC1=O [Compound 261] | < 10 nM | ≥ 100 nM |
| C[C@@H](O)c1cc2cnc(Nc3ccc4c(n3)CCN(C(=O)CN3CCC(O)CC3)C4)nc2c(N2C3CCC2CC3)n1 [Compound 262] | < 10 nM | ≥ 100 nM |
| C[C@@H](O)c1cc2cnc(Nc3ccc4c(n3)CCN(C(=O)CN3CCN(CCO)CC3)C4)nc2c(N2C3CCC2CC3)n1 [Compound 263] | < 10 nM | ≥ 100 nM |
| C[C@@H](O)c1cc2cnc(Nc3ccc4c(n3)CCN(C(=O)CN3CCN(C)CC3)C4)nc2c(N2C3CCC2CC3)n1 [Compound 264] | < 10 nM | ≥ 100 nM |
| C[C@@H](O)c1cc2cnc(Nc3ccc4c(n3)CCN(C(=O)CN3CC5(CN(C)C5)C3)C4)nc2c(N2C3CCC2CC3)n1 [Compound 265] | < 10 nM | ≥ 100 nM |
| C[C@@H](O)c1cc2cnc(Nc3ccc4c(n3)CCN(C(=O)CN3CC5(COC5)C3)C4)nc2c(N2CCCCC2)n1 [Compound 266] | < 10 nM | ≥ 100 nM |
| C[C@@H](O)c1cc2cnc(Nc3ccc4c(n3)CCN(C(=O)CN3CC5(CC(O)C5)C3)C4)nc2c(N2C3CCC2CC3)n1 [Compound 267] | < 10 nM | ≥ 100 nM |
| C[C@@H](O)c1cc2cnc(Nc3ccc4c(n3)CCN(C(=O)CN3CC5(CC(O)C5)C3)C4)nc2c(N2CCCCC2)n1 [Compound 268] | < 10 nM | ≥ 100 nM |
| C[C@@H](O)c1cc2cnc(Nc3ccc4c(n3)CCN(C(=O)CN3CC(F)C3)C4)nc2c(N2CCCCC2)n1 [Compound 269] | < 10 nM | ≥ 100 nM |
| C[C@@H](O)c1cc2cnc(Nc3ccc4c(n3)CCN(C(=O)CN3CCC3)C4)nc2c(N2CCCCC2)n1 [Compound 270] | < 10 nM | ≥ 100 nM |
| C[C@@H](O)c1cc2cnc(Nc3ccc(CN4CCN(CCO)CC4)cn3)nc2c(N2CCC(C#N)CC2)n1 [Compound 271] | < 10 nM | ≥ 100 nM |
| C[C@@H](O)c1cc2cnc(Nc3ccc(N4CCNCC4=O)cn3)nc2c(N2CCC(C#N)CC2)n1 [Compound 272] | < 10 nM | ≥ 100 nM |
| C[C@@H](O)c1cc2cnc(Nc3ccc(N4CCNCC4)nn3)nc2c(N2CCC(C#N)CC2)n1 [Compound 273] | < 10 nM | ≥ 100 nM |
| C[C@@H](O)c1cc2cnc(Nc3ccc4c(n3)CCNC4)nc2c(N2CCC(C#N)CC2)n1 [Compound 274] | < 10 nM | ≥ 100 nM |
| OCCN1CCN(Cc2ccc(Nc3ncc4cc(C5COC5)nc(N5CCCCC5)c4n3)nc2)CC1 [Compound 275] | < 10 nM | ≥ 100 nM |
| O=C1CCNCCN1c1ccc(Nc2ncc3cc(C4COC4)nc(N4CCCCC4)c3n2)nc1 [Compound 276] | < 10 nM | ≥ 100 nM |
| c1cc(N2CCNCC2)nnc1Nc1ncc2cc(C3COC3)nc(N3CCCCC3)c2n1 [Compound 277] | 10 to 100 nM | ≥ 100 nM |
